From patent publication US9149038B2, “4-amino-6-(heterocyclic)picolinates and 6-amino-2-(heterocyclic)pyrimidine-4-carboxylates and their use as herbicides” (Dow AgroSciences LLC, priority 2013, dated 2015)
Read-outs that look alike come from different tables or passages of the source.

Experiments:
[1] = system: Key Broadleaf Weed and Crop Species; test: Post-Emergent Test II: postemergent herbicidal activity, visual rating after 14 d (Table 7); type: in vivo; details: post-emergence, 336 h; for pest or weed control at 35 g/ha: 35 g ai/ha; for pest or weed control at 70 g/ha: 70 g ai/ha; for pest or weed control at 140 g/ha: 140 g ai/ha
Outline: (§1)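 Greenhouse plants at first or second true leaf stage sprayed with compound in acetone/DMSO-based spray solution with crop oil concentrate and Triton X-155 at 187 L/ha, tested at highest rate and ½× to 1/16× dilutions; solvent blank controls. Injury rated visually 0–100% versus untreated plants after 14 d.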

[2] = system: Key Grass and Sedge Weeds as well as Grass Crops; test: Post-Emergent Test II: postemergent herbicidal activity, visual rating after 14 d (Table 8); type: in vivo; details: post-emergence, 336 h; for pest or weed control at 35 g/ha: 35 g ai/ha; for pest or weed control at 70 g/ha: 70 g ai/ha; for pest or weed control at 140 g/ha: 140 g ai/ha
Outline: as §1

[3] = ABUTH: velvetleaf (Abutilon theophrasti), read-out: Visual Growth Reduction (%) 14 Days After Application ABUTH
[4] = AMARE: redroot pigweed (Amaranthus retroflexus), read-out: Visual Growth Reduction (%) 14 Days After Application AMARE
[5] = BRSNN: oilseed rape, canola (Brassica napus), read-out: Visual Growth Reduction (%) 14 Days After Application BRSNN
[6] = CHEAL: lambsquarters (Chenopodium album), read-out: Visual Growth Reduction (%) 14 Days After Application CHEAL
[7] = EPHHL: wild poinsettia (Euphorbia heterophylla), read-out: Visual Growth Reduction (%) 14 Days After Application EPHHL
[8] = HELAN: sunflower (Helianthus annuus), read-out: Visual Growth Reduction (%) 14 Days After Application HELAN
[9] = barnyardgrass (Echinochloa crus-galli), read-out: Visual Growth Reduction (%) 14 Days After Application, ECHCG
[10] = giant foxtail (Setaria faberi), read-out: Visual Growth Reduction (%) 14 Days After Application, SETFA
[11] = maize, corn (Zea mays), read-out: Visual Growth Reduction (%) 14 Days After Application, ZEAMX
[12] = rice (Oryza sativa), read-out: Visual Growth Reduction (%) 14 Days After Application, ORYSA
[13] = wheat, spring (Triticum aestivum), read-out: Visual Growth Reduction (%) 14 Days After Application, TRZAS
[14] = yellow nutsedge (Cyperus esculentus), read-out: Visual Growth Reduction (%) 14 Days After Application, CYPES

## COC(=O)c1nc(-c2ccc(F)c3c2OCO3)cc(N)c1Cl [Compound 92]
[1]; [3]
  pest or weed control at 35 g/ha: 60 to 74%
  pest or weed control at 70 g/ha: 85 to 94%
  pest or weed control at 140 g/ha: 85 to 94%
[1]; [4]
  pest or weed control at 35 g/ha: 95 to 100%
  pest or weed control at 70 g/ha: 95 to 100%
  pest or weed control at 140 g/ha: 95 to 100%
[1]; [5]
  pest or weed control at 35 g/ha: 30 to 44%
  pest or weed control at 70 g/ha: 60 to 74%
  pest or weed control at 140 g/ha: 75 to 84%
[1]; [6]
  pest or weed control at 35 g/ha: 95 to 100%
  pest or weed control at 70 g/ha: 85 to 94%
  pest or weed control at 140 g/ha: 95 to 100%
[1]; [7]
  pest or weed control at 35 g/ha: 0 to 29%
  pest or weed control at 70 g/ha: 0 to 29%
  pest or weed control at 140 g/ha: 0 to 29%
[1]; [8]
  pest or weed control at 35 g/ha: 60 to 74%
  pest or weed control at 70 g/ha: 60 to 74%
  pest or weed control at 140 g/ha: 75 to 84%
[2]; [9]
  pest or weed control at 35 g/ha: 0 to 29%
  pest or weed control at 70 g/ha: 0 to 29%
  pest or weed control at 140 g/ha: 0 to 29%
[2]; [10]
  pest or weed control at 35 g/ha: 0 to 29%
  pest or weed control at 70 g/ha: 0 to 29%
  pest or weed control at 140 g/ha: 0 to 29%
[2]; [11]
  pest or weed control at 35 g/ha: 0 to 29%
  pest or weed control at 70 g/ha: 0 to 29%
  pest or weed control at 140 g/ha: 0 to 29%
[2]; [12]
  pest or weed control at 35 g/ha: 0 to 29%
  pest or weed control at 70 g/ha: 0 to 29%
  pest or weed control at 140 g/ha: 0 to 29%
[2]; [13]
  pest or weed control at 35 g/ha: 0 to 29%
  pest or weed control at 70 g/ha: 0 to 29%
  pest or weed control at 140 g/ha: 0 to 29%
[2]; [14]
  pest or weed control at 35 g/ha: 0 to 29%
  pest or weed control at 70 g/ha: 0 to 29%
  pest or weed control at 140 g/ha: 0 to 29%
